# In patent publication US20200399262A1, “COMPOUNDS FOR INHIBITING PROTEIN DEGRADATION AND METHODS OF USE THEREOF IN THE TREATMENT OF CANCER” (PI Therapeutics Ltd, priority 2018, published 2020):
# What was measured:
# [1] = system: poly-ubiquitinated proteins; experiment: Western blot of poly-ubiquitinated proteins in MM1.S cells; assay type: cell-based; conditions: SDS-PAGE immunoblot
# Procedure: MM1.S cells were treated with Compound B1 (FIG. 1A), Compound AA (FIG. 1B) and Compound E1 (FIG. 1C) for indicated periods of time. Following treatment, the cells were harvested, and the lysates resolved on SDS-PAGE. Transferred membranes were blotted with antibodies as indicated. Actin was used as loading control.
# Protein analysis by Western blot. At the end of treatment period, the cells were lysed with M-PER mammalian protein extraction reagent (ThermoFisher Scientific) supplemented with protease inhibitors. Equal protein amounts were resolved on pre-cast SDS-PAGE (ThermoFisher Scientific) and transferred to a PVDF membrane. The membrane was immunoblotted with antibodies as indicated. The following antibodies were used: Ub MAb (SC-8017, Santa-Cruz), ATF4, ATF6, phospho JNK, JNK (Cell signaling); eIF2alpha, phospho eIF2alpha (Novus).
# proteasome = experiment: Proteasome activity (Proteasome-GLO) in intact MM1.S cells; assay type: cell-based; conditions: 3 hr at 37° C.
# Procedure: Proteasome activity was measured in intact MM1.S cells as cleavage of peptide substrates, specific for Trypsin like (TL), Chemotrypsin like (CTL) and Caspase like (PL) activities of the proteasome following treatment with Compound B1, Compound AA or Bortezomib (BTZ) at ˜EC50 concentrations for 3 hr at 37° C. BTZ was used as positive control.
# Proteasome activity. The assay was performed only when cell viability is ≥90%. Cells were seeded in 96-well white clear bottom plates and treated with diluted compounds or vehicle control in triplicates for 3 hours at various concentrations. Catalytic activity was measured using three luminogenic proteasome substrates: Suc-LLVY-aminoluciferin (Succinyl-leucine-leucine-valine-tyrosine-aminoluciferin), Z-LRR-aminoluciferin (Z-leucine-arginine-arginine-aminoluciferin) and Z-nLPnLD-aminoluciferin (Z-norleucine-proline-norleucine-aspartate-aminoluciferin) for the chymotrypsin-like, trypsin-like and caspase-like activities, respectively (Proteasome-GLO, Promega). The emitted light was proportional to the proteasomal activity. Catalytic activity was calculated as the percent activity from control vehicle-treated cells.
# MM1.S cells, were treated with Compound B1, Compound AA or Bortezomib (BTZ) at various concentrations for 3 hr at 37° C. […] Proteasome activity was measured by cleavage of proteasome-specific peptide substrates for TL, CTL and PL activities.
# [2] = system: PBMCs from healthy donors; experiment: In-vitro safety in PBMCs from healthy donors (ATPlite viability); assay type: cell-based; conditions: for therapeutic window, EC50 (PBMC)/EC50 (MM1.S) ratio: 5 healthy donor PBMC samples, viability 48 h later; for therapeutic window, EC50 (PBMC)/EC50 (MM1.S) ratio / cytotoxicity to PBMCs from healthy donors: 6 h treatment; for sensitivity of MM1.S cells versus PBMCs from healthy donors: 6 hr exposure, viability following 48 h of incubation; for cytotoxicity to PBMCs from healthy donors: viability 48 h later (ATPlight assay)
# Procedure: FIG. 5 depicts the in-vitro safety of Compound B1 and Compound AA in Peripheral Blood Mononuclear Cells (PBMCs) from healthy donors respectively. MM1.S cells and normal PBMCs from healthy donors were treated with various concentrations of indicated compounds for 6 h and then analyzed 48 h later for cell viability (ATPlight assay). […] Calculated therapeutic windows: […], generated from 5 healthy donor PBMC samples, based on mean viability data.
# PBMCs from healthy donors were exposed to Compound B1 and Compound AA for 6 hr and analyzed for viability by ATPight following 48 h of incubation. Results are representative of PBMCs from 5 healthy volunteers (FIG. 5). EC50 (PBMC)/EC50 (MM1.S) ratio, generated from 5 healthy donor PBMC samples, is shown for Compound B1, Compound AA and other UPS inhibitors [ixazomib, Bortezomib (BTZ) and CB5083].
# MM1.S xenograft = experiment: MM1.S subcutaneous flank xenograft in athymic nude mice; assay type: in vivo; conditions: for MM tumor growth compared to vehicle control / body weight % changes: TIW for 21 days; for Blood chemistry profiles (liver or kidney toxicity): TIW, treated mice
# Source text: FIG. 4A-4D depicts the growth inhibition of MM1.S xenograft in nude mice by Compound B1 (FIG. 4A, FIG. 4B) and Compound AA (FIG. 4C, FIG. 4D). FIG. 4A and FIG. 4C show tumor growth inhibition observed at end point measurements by Compound B1 and AA respectively. […] MM.1S cells (5×10^6 cells/mouse) were implanted in the rear flank of mail mice (6 weeks of age at the time of tumor implantation). On Day 20-23, mice were randomized for equivalent distribution of tumor volumes to treatment groups (n=5/group) and treated IV with vehicle, compound B1 (FIG. 4A) and compound AA (FIG. 4C), three time a week (TIW) for 21 days. Data are presented as mean tumor volume±SD. Body weight % changes in treated animals observed during the course of the study for compound B1 (FIG. 4B) and Compound AA (FIG. 4D).
# Animal xenograft models. MM1.S, HCT-116, SW620 cell lines were purchased from ATCC and used for xenograft model. The cells were cultured in RPMI medium (Sigma-Aldrich) supplemented with 10% fetal bovine serum (FBS) and divided for up to 5 passages. Shortly prior to injection, cell suspension was mixed with Matrigel at 1:1 (V/V) and injected subcutaneously to the rear flank area of male nude athymic 6 weeks old mice to obtain administration of 5×10^6 cells/animal. On day 20-23, when tumor volume reached 100-150 mm^3, mice were randomized for equivalent distribution of tumor volumes to treatment groups (n=5/group) and treated via intravenous injection.
# SK-MEL-28 = experiment: NCI60 screen cytotoxicity; assay type: cell-based; conditions: Homo sapiens, Melanoma, read-out: Compound B1 EC50
# PC-3 = experiment: NCI60 screen cytotoxicity; assay type: cell-based; conditions: Homo sapiens, Prostate cancer, read-out: Compound B1 EC50
# NCI-H322M = experiment: NCI60 screen cytotoxicity; assay type: cell-based; conditions: Homo sapiens, Lung cancer, read-out: Compound B1 EC50
# HCT-15 = experiment: NCI60 screen cytotoxicity; assay type: cell-based; conditions: Homo sapiens, Colon cancer, read-out: Compound B1 EC50
# NCI-H522 = experiment: NCI60 screen cytotoxicity; assay type: cell-based; conditions: Homo sapiens, Lung cancer, read-out: Compound B1 EC50
# MM1.S = experiment: Cell viability, ATPlite 1-step, MM cell lines; assay type: cell-based; conditions: Homo sapiens; MM1.S MM cell line; 48 hours; read-out: Compound EC50
# Procedure: Cell Viability. The assay was performed only when cell viability was ≥90%. Cells were seeded in 96-well white clear bottom plates at concentration of 100,000 cells/mL and treated with serially diluted compounds or vehicle (DMSO) control in triplicates for 48 hours (h). Cell viability was determined using the ATPlite 1-step assay system (PerkinElmer). The method was based on the production of light caused by the reaction of ATP, which was a marker for cell viability. […] were added to the plates which were read in a plate reader for luminescence. The emitted light is proportional to the ATP concentration. Viability was calculated as the percent of viable cells from control vehicle-treated cells. EC50 was calculated using Prism software.
# Potency of compounds were assessed by viability assay.
# LOX IMVI = experiment: NCI60 screen cytotoxicity; assay type: cell-based; conditions: Homo sapiens, Melanoma, read-out: Compound B1 EC50
# HOP-92 = experiment: NCI60 screen cytotoxicity; assay type: cell-based; conditions: Homo sapiens, Lung cancer, read-out: Compound B1 EC50
Compound,accumulation of poly-ubiquitinated proteins [1],"inhibition of the enzymatic functions of the proteasome (TL, CTL and PL activities) (proteasome)","therapeutic window, EC50 (PBMC)/EC50 (MM1.S) ratio [2]",sensitivity of MM1.S cells versus PBMCs from healthy donors [2],cytotoxicity to PBMCs from healthy donors [2],MM tumor growth compared to vehicle control (MM1.S xenograft; 4 mg/kg IV),body weight % changes (MM1.S xenograft; 4 mg/kg IV),Blood chemistry profiles (liver or kidney toxicity) (MM1.S xenograft; 4 mg/kg IV),EC50 (SK-MEL-28) [µM],EC50 (PC-3) [µM],EC50 (NCI-H322M) [µM],MM tumor growth compared to vehicle control (MM1.S xenograft; 5 mg/kg IV),body weight % changes (MM1.S xenograft; 5 mg/kg IV),Blood chemistry profiles (liver or kidney toxicity) (MM1.S xenograft; 5 mg/kg IV),EC50 (HCT-15) [µM],EC50 (NCI-H522) [µM],EC50 (MM1.S) [µM],EC50 (LOX IMVI) [µM],EC50 (HOP-92) [µM]
CN(C)CCCS(=O)(=O)N1C/C(=C\c2ccc(C#N)cc2)C(=O)/C(=C/c2ccc(C#N)cc2)C1 [Compound AA],observable accumulation of poly-ubiquitinated proteins,does not Inhibit,larger Tx window than competing UPS inhibitors,more sensitive,"less cytotoxic to PBMCs from healthy donors than Ixazomib, Bortezomib (BTZ) and CB5083",significantly inhibited MM tumor growth,No significant weight loss,no clinical abnormalities suggestive of liver or kidney toxicity,–,–,–,–,–,–,–,–,–,–,–
CN(C)CC(=O)NCC(=O)N1C/C(=C\c2ccc(C#N)cc2)C(=O)/C(=C/c2ccc(C#N)cc2)C1 [Compound B1],observable accumulation of poly-ubiquitinated proteins,does not Inhibit,larger Tx window than competing UPS inhibitors,more sensitive,"less cytotoxic to PBMCs from healthy donors than Ixazomib, Bortezomib (BTZ) and CB5083",–,–,–,0.3 to 1,< 0.3,0.3 to 1,significantly inhibited MM tumor growth,No significant weight loss,no clinical abnormalities suggestive of liver or kidney toxicity,< 0.3,< 0.3,< 0.3,< 0.3,0.3 to 1
